{
  "source": "PubChem BioAssay (NCI)",
  "experiment_in_all_cases": "NCI tumour cell line growth inhibition, 48 h",
  "key": {"A498 renal": {"system": "A498 renal"}, "DLD-1 colon": {"system": "DLD-1 colon"}, "DMS 114 small cell lung": {"system": "DMS 114 small cell lung"}, "DMS 273 small cell lung": {"system": "DMS 273 small cell lung"}, "HOP-18 NSCLC": {"system": "HOP-18 NSCLC"}, "KM20L2 colon": {"system": "KM20L2 colon"}, "M19-MEL melanoma": {"system": "M19-MEL melanoma"}, "MALME-3M melanoma": {"system": "MALME-3M melanoma"}, "MCF7 breast": {"system": "MCF7 breast"}, "NCI/ADR-RES ovarian": {"system": "NCI/ADR-RES ovarian"}, "OVCAR-3 ovarian": {"system": "OVCAR-3 ovarian"}, "P388 leukemia": {"system": "P388 leukemia"}, "P388/ADR leukemia": {"system": "P388/ADR leukemia"}, "SK-OV-3 ovarian": {"system": "SK-OV-3 ovarian"}, "SN12K1 renal": {"system": "SN12K1 renal"}, "SNB-78 CNS": {"system": "SNB-78 CNS"}, "XF 498 CNS": {"system": "XF 498 CNS"}, "ACHN renal": {"system": "ACHN renal"}, "SR leukemia": {"system": "SR leukemia"}, "TK-10 renal": {"system": "TK-10 renal"}},
  "note": "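Growth conditions: 96-well plates. Treatment: test compound, 48 hours, 5 concentrations. Analysis: linear interpolation between bracketing concentrations; unreached endpoints set to highest concentration. TGI: total growth inhibition.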",
  "data": [
    {"molecule": "CC(C)CCCC(C)[C@H]1CCC(C2C[C@@H](O)[C@@H]3CC(O)[C@@H](O)C[C@]3(CO)C2=O)[C@]1(C)CCO", "note": "(some centres undefined)", "values": [
      {"measurement": "TGI", "setting": "A498 renal", "value": 48.9, "unit": "µM"},
      {"measurement": "TGI", "setting": "DLD-1 colon", "value": "> 100", "unit": "µM"},
      {"measurement": "TGI", "setting": "DMS 114 small cell lung", "value": 39.7, "unit": "µM"},
      {"measurement": "TGI", "setting": "DMS 273 small cell lung", "value": "> 68.5", "unit": "µM"},
      {"measurement": "TGI", "setting": "HOP-18 NSCLC", "value": 47.7, "unit": "µM"},
      {"measurement": "TGI", "setting": "KM20L2 colon", "value": 38.5, "unit": "µM"},
      {"measurement": "TGI", "setting": "M19-MEL melanoma", "value": 39, "unit": "µM"},
      {"measurement": "TGI", "setting": "MALME-3M melanoma", "value": 44.8, "unit": "µM"},
      {"measurement": "TGI", "setting": "MCF7 breast", "value": 20.4, "unit": "µM"},
      {"measurement": "TGI", "setting": "NCI/ADR-RES ovarian", "value": "> 100", "unit": "µM"},
      {"measurement": "TGI", "setting": "OVCAR-3 ovarian", "value": 47.9, "unit": "µM"},
      {"measurement": "TGI", "setting": "P388 leukemia", "value": 49.5, "unit": "µM"},
      {"measurement": "TGI", "setting": "P388/ADR leukemia", "value": "> 88.7", "unit": "µM"},
      {"measurement": "TGI", "setting": "SK-OV-3 ovarian", "value": 67.1, "unit": "µM"},
      {"measurement": "TGI", "setting": "SN12K1 renal", "value": 37.4, "unit": "µM"},
      {"measurement": "TGI", "setting": "SNB-78 CNS", "value": 85.5, "unit": "µM"},
      {"measurement": "TGI", "setting": "XF 498 CNS", "value": "> 59.6", "unit": "µM"}
    ]},
    {"molecule": "N#Cc1ccccc1NC(=O)C(=O)C(C(=O)c1ccccc1F)C1OC(=O)c2ccccc21", "note": "(centres undefined)", "values": [
      {"measurement": "TGI", "setting": "A498 renal", "value": "> 100", "unit": "µM"},
      {"measurement": "TGI", "setting": "ACHN renal", "value": "> 100", "unit": "µM"},
      {"measurement": "TGI", "setting": "DLD-1 colon", "value": "> 100", "unit": "µM"},
      {"measurement": "TGI", "setting": "DMS 114 small cell lung", "value": "> 100", "unit": "µM"},
      {"measurement": "TGI", "setting": "DMS 273 small cell lung", "value": "> 100", "unit": "µM"},
      {"measurement": "TGI", "setting": "KM20L2 colon", "value": "> 100", "unit": "µM"},
      {"measurement": "TGI", "setting": "M19-MEL melanoma", "value": "> 100", "unit": "µM"},
      {"measurement": "TGI", "setting": "SK-OV-3 ovarian", "value": "> 100", "unit": "µM"},
      {"measurement": "TGI", "setting": "SNB-78 CNS", "value": 90.2, "unit": "µM"},
      {"measurement": "TGI", "setting": "SR leukemia", "value": 57, "unit": "µM"},
      {"measurement": "TGI", "setting": "TK-10 renal", "value": "> 100", "unit": "µM"},
      {"measurement": "TGI", "setting": "XF 498 CNS", "value": "> 100", "unit": "µM"}
    ]},
    {"molecule": "CC(=O)C(=Cc1cn(C)c(=O)n(C)c1=O)C(C)=O", "values": [
      {"measurement": "TGI", "setting": "A498 renal", "value": 290, "unit": "µM"},
      {"measurement": "TGI", "setting": "DLD-1 colon", "value": 222, "unit": "µM"},
      {"measurement": "TGI", "setting": "DMS 114 small cell lung", "value": 227, "unit": "µM"},
      {"measurement": "TGI", "setting": "DMS 273 small cell lung", "value": 225, "unit": "µM"},
      {"measurement": "TGI", "setting": "HOP-18 NSCLC", "value": 456, "unit": "µM"},
      {"measurement": "TGI", "setting": "KM20L2 colon", "value": 230, "unit": "µM"},
      {"measurement": "TGI", "setting": "M19-MEL melanoma", "value": 273, "unit": "µM"},
      {"measurement": "TGI", "setting": "MALME-3M melanoma", "value": 201, "unit": "µM"},
      {"measurement": "TGI", "setting": "MCF7 breast", "value": 625, "unit": "µM"},
      {"measurement": "TGI", "setting": "NCI/ADR-RES ovarian", "value": 286, "unit": "µM"},
      {"measurement": "TGI", "setting": "OVCAR-3 ovarian", "value": 299, "unit": "µM"},
      {"measurement": "TGI", "setting": "P388 leukemia", "value": 240, "unit": "µM"},
      {"measurement": "TGI", "setting": "P388/ADR leukemia", "value": 392, "unit": "µM"},
      {"measurement": "TGI", "setting": "SK-OV-3 ovarian", "value": 327, "unit": "µM"},
      {"measurement": "TGI", "setting": "SN12K1 renal", "value": 228, "unit": "µM"},
      {"measurement": "TGI", "setting": "SNB-78 CNS", "value": 600, "unit": "µM"},
      {"measurement": "TGI", "setting": "XF 498 CNS", "value": 78.1, "unit": "µM"}
    ]},
    {"molecule": "C/C(=C1\\N=C(c2ccccc2)OC1=O)c1ccccc1", "values": [
      {"measurement": "TGI", "setting": "A498 renal", "value": "> 100", "unit": "µM"},
      {"measurement": "TGI", "setting": "ACHN renal", "value": "> 100", "unit": "µM"},
      {"measurement": "TGI", "setting": "MALME-3M melanoma", "value": "> 100", "unit": "µM"},
      {"measurement": "TGI", "setting": "MCF7 breast", "value": "> 100", "unit": "µM"},
      {"measurement": "TGI", "setting": "OVCAR-3 ovarian", "value": "> 100", "unit": "µM"},
      {"measurement": "TGI", "setting": "SK-OV-3 ovarian", "value": "> 100", "unit": "µM"},
      {"measurement": "TGI", "setting": "SR leukemia", "value": "> 100", "unit": "µM"},
      {"measurement": "TGI", "setting": "TK-10 renal", "value": "> 100", "unit": "µM"}
    ]},
    {"molecule": "C=CCC(O[Si](C)(C)C(C)(C)C)c1cc(O[Si](C)(C)C(C)(C)C)ccc1OC", "note": "(centres undefined)", "values": [
      {"measurement": "TGI", "setting": "A498 renal", "value": "> 100", "unit": "µM"},
      {"measurement": "TGI", "setting": "DLD-1 colon", "value": "> 100", "unit": "µM"},
      {"measurement": "TGI", "setting": "DMS 114 small cell lung", "value": "> 100", "unit": "µM"},
      {"measurement": "TGI", "setting": "DMS 273 small cell lung", "value": "> 100", "unit": "µM"},
      {"measurement": "TGI", "setting": "HOP-18 NSCLC", "value": "> 100", "unit": "µM"},
      {"measurement": "TGI", "setting": "KM20L2 colon", "value": "> 100", "unit": "µM"},
      {"measurement": "TGI", "setting": "MALME-3M melanoma", "value": "> 100", "unit": "µM"},
      {"measurement": "TGI", "setting": "MCF7 breast", "value": "> 100", "unit": "µM"},
      {"measurement": "TGI", "setting": "NCI/ADR-RES ovarian", "value": "> 100", "unit": "µM"},
      {"measurement": "TGI", "setting": "OVCAR-3 ovarian", "value": "> 100", "unit": "µM"},
      {"measurement": "TGI", "setting": "P388 leukemia", "value": "> 100", "unit": "µM"},
      {"measurement": "TGI", "setting": "P388/ADR leukemia", "value": "> 100", "unit": "µM"},
      {"measurement": "TGI", "setting": "SK-OV-3 ovarian", "value": "> 96.4", "unit": "µM"},
      {"measurement": "TGI", "setting": "SN12K1 renal", "value": "> 100", "unit": "µM"},
      {"measurement": "TGI", "setting": "SNB-78 CNS", "value": "> 100", "unit": "µM"},
      {"measurement": "TGI", "setting": "XF 498 CNS", "value": "> 100", "unit": "µM"}
    ]},
    {"molecule": "COC1/C=C/C(C)C(O)CC(O)/C=C/C(C)C(C(C)C(OC)C(C)CCC(=O)C(C)C(C/C=C/N(C)C=O)OC)OC(=O)/C=C/C=C(\\C)CC(OC)CC2=CC(=O)O[C@@H](C(C)C(OC)C1)[C@H]2O", "note": "(some centres undefined)", "values": [
      {"measurement": "TGI", "setting": "A498 renal", "value": 0.0164, "unit": "µM"},
      {"measurement": "TGI", "setting": "ACHN renal", "value": 0.13, "unit": "µM"},
      {"measurement": "TGI", "setting": "MCF7 breast", "value": 0.0909, "unit": "µM"},
      {"measurement": "TGI", "setting": "OVCAR-3 ovarian", "value": 0.0106, "unit": "µM"},
      {"measurement": "TGI", "setting": "SK-OV-3 ovarian", "value": 0.108, "unit": "µM"},
      {"measurement": "TGI", "setting": "SR leukemia", "value": 24.6, "unit": "µM"},
      {"measurement": "TGI", "setting": "TK-10 renal", "value": 0.0551, "unit": "µM"}
    ]},
    {"molecule": "COc1ccccc1NC(=O)C(=O)C(C(=O)c1ccccc1F)C1OC(=O)c2ccccc21", "note": "(centres undefined)", "values": [
      {"measurement": "TGI", "setting": "A498 renal", "value": "> 100", "unit": "µM"},
      {"measurement": "TGI", "setting": "ACHN renal", "value": "> 100", "unit": "µM"},
      {"measurement": "TGI", "setting": "DLD-1 colon", "value": "> 100", "unit": "µM"},
      {"measurement": "TGI", "setting": "DMS 114 small cell lung", "value": 64.3, "unit": "µM"},
      {"measurement": "TGI", "setting": "DMS 273 small cell lung", "value": "> 100", "unit": "µM"},
      {"measurement": "TGI", "setting": "KM20L2 colon", "value": 58.2, "unit": "µM"},
      {"measurement": "TGI", "setting": "M19-MEL melanoma", "value": 61.6, "unit": "µM"},
      {"measurement": "TGI", "setting": "SK-OV-3 ovarian", "value": 99.7, "unit": "µM"},
      {"measurement": "TGI", "setting": "SNB-78 CNS", "value": "> 100", "unit": "µM"},
      {"measurement": "TGI", "setting": "SR leukemia", "value": 60.7, "unit": "µM"},
      {"measurement": "TGI", "setting": "TK-10 renal", "value": "> 100", "unit": "µM"},
      {"measurement": "TGI", "setting": "XF 498 CNS", "value": "> 100", "unit": "µM"}
    ]}
  ]
}
